From patent US20250049035A1, “MICROBIOCIDAL BICYCLE HETEROCYCLIC DERIVATIVES” (SYNGENTA CROP PROTECTION AG, priority 2021, published 2025)

What was measured:
Alternaria solani = Alternaria solani / tomato / leaf disc (early blight); type: in vivo; settings: foliar, tomato leaf disks cv. Baby, inoculated 2 days after application, assessed 5-7 days after application, compared to untreated control
Description: Example B1: Alternaria solani/Tomato/Leaf Disc (Early Blight) Tomato leaf disks cv. Baby are placed on agar in multiwell plates (24-well format) and sprayed with the formulated test compound diluted in water. The leaf disks are inoculated with a spore suspension of the fungus 2 days after application. The inoculated leaf disks are incubated at 23° C./21° C.

[1] = tested on: Botryotinia fuckeliana (Botrytis cinerea); assay: Botryotinia fuckeliana (Botrytis cinerea) / liquid culture (gray mould); type: cell-based; settings: liquid culture (Vogels broth), growth inhibition photometrically 3-4 days after application, compared to untreated control
Description: (§1) Example B2: Botryotinia fuckeliana (Botrytis cinerea)/Liquid Culture (Gray Mould) Conidia of the fungus from cryogenic storage are directly mixed into a nutrient broth (Vogels broth). After placing a DMSO solution of test compound into a microtiter plate (96-well format), the nutrient broth containing the fungal spores is added. The test plates are incubated at 24° C. and the inhibition of growth is determined photometrically 3-4 days after application.

[2] = tested on: Glomerella lagenarium (Colletotrichum lagenarium); assay: Glomerella lagenarium (Colletotrichum lagenarium) / liquid culture (anthracnose); type: cell-based; settings: Colletotrichum orbiculare, liquid culture (potato dextrose broth), growth inhibition photometrically 3-4 days after application, compared to untreated control
Description: as §1, with “B3: Glomerella lagenarium (Colletotrichum lagenarium)/Liquid” for “B2: Botryotinia fuckeliana (Botrytis cinerea)/Liquid”, “(Anthracnose)” for “(Gray Mould)”, “(potato dextrose” for “(Vogels”, “measured” for “determined”

[3] = tested on: Monographella nivalis (Microdochium nivale); assay: Monographella nivalis (Microdochium nivale) / liquid culture (foot rot cereals); type: cell-based; settings: liquid culture (potato dextrose broth), growth inhibition photometrically 4-5 days after application, compared to untreated control
Description: as §1, with “B9: Monographella nivalis (Microdochium nivale)/Liquid” for “B2: Botryotinia fuckeliana (Botrytis cinerea)/Liquid”, “(Foot Rot Cereals)” for “(Gray Mould)”, “(potato dextrose” for “(Vogels”, “4-5” for “3-4”

[4] = tested on: Mycosphaerella arachidis (Cercospora arachidicola); assay: Mycosphaerella arachidis (Cercospora arachidicola) / liquid culture (early leaf spot); type: cell-based; settings: liquid culture (potato dextrose broth), growth inhibition photometrically 4-5 days after application, compared to untreated control
Description: as §1, with “B10: Mycosphaerella arachidis (Cercospora arachidicola)/Liquid” for “B2: Botryotinia fuckeliana (Botrytis cinerea)/Liquid”, “(Early Leaf Spot)” for “(Gray Mould)”, “(potato dextrose broth)” for “(Vogels broth).”, “4-5” for “3-4”

Pyrenophora teres = Pyrenophora teres / barley / leaf disc preventative (net blotch); type: in vivo; settings: foliar, barley leaf segments cv. Hasso, inoculated 2 days after application, assessed 5-7 days after application, compared to untreated control
Description: Example B12: Pyrenophora teres/Barley/Leaf Disc Preventative (Net Blotch) Barley leaf segments cv. Hasso are placed on agar in a multiwell plate (24-well format) and sprayed with the formulated test compound diluted in water. The leaf segments are inoculated with a spore suspension of the fungus 2 days after application. The inoculated leaf segments are incubated at 20° C. and 65% relative humidity under a light regime of 12 h light/12 h darkness in a climate cabinet and the activity of a compound is assessed as disease control compared to untreated when an appropriate level of disease damage appears in untreated check leaf segments (5-7 days after application).

[5] = tested on: Mycosphaerella graminicola (Septoria tritici); assay: Mycosphaerella graminicola (Septoria tritici) / liquid culture (Septoria blotch); type: cell-based; settings: Zymoseptoria tritici, liquid culture (potato dextrose broth), growth inhibition photometrically 4-5 days after application, compared to untreated control
Description: as §1, with “B15: Mycosphaerella graminicola (Septoria tritici/Liquid” for “B2: Botryotinia fuckeliana (Botrytis cinerea)/Liquid”, “(Septoria Blotch)” for “(Gray Mould)”, “(potato dextrose” for “(Vogels”, “4-5” for “3-4”

[6] = tested on: Phaeosphaeria nodorum (Septoria nodorum); assay: Phaeosphaeria nodorum (Septoria nodorum) / wheat / leaf disc preventative (glume blotch); type: in vivo; settings: Parastagonospora nodorum, foliar, wheat leaf segments cv. Kanzler, inoculated 2 days after application, assessed 5-7 days after application, compared to untreated control
Description: Example B8: Phaeosphaeria Nodorum (Septoria nodorum)/Wheat/Leaf Disc Preventative (Glume Blotch) Wheat leaf segments cv. Kanzler are placed on agar in a multiwell plate (24-well format) and sprayed with the formulated test compound diluted in water. The leaf disks are inoculated with a spore suspension of the fungus 2 days after application. The inoculated test leaf disks are incubated at 20° C. and 75% relative humidity under a light regime of 12 h light/12 h darkness in a climate cabinet and the activity of a compound is assessed as percent disease control compared to untreated when an appropriate level of disease damage appears in untreated check leaf disks (5-7 days after application).

C[C@H]1c2ccsc2[C@@](C)(c2cnn(C)c2)CN1C(=O)c1nnc(-c2ccc(F)cc2F)s1 (racemic) [Compound P-8, [5-(2,4-difluorophenyl)-1,3,4-thiadiazol-2-yl]-[rac-(4R,7R)-4,7-dimethyl-7-(1-methylpyrazol-4-yl)-4,6-dihydrothieno[3,2-c]pyridin-5-yl]methanone]
≥ 80%: pest or weed control at 200 ppm (Alternaria solani) | inhibition of growth at 20 ppm [1] | inhibition of growth at 20 ppm [2] | inhibition of growth at 20 ppm [3] | inhibition of growth at 20 ppm [4] | pest or weed control at 200 ppm (Pyrenophora teres) | inhibition of growth at 20 ppm [5]

C[C@@H]1c2sccc2[C@@H](c2cnn(C)c2)CN1C(=O)c1nnc(-c2ccc(F)cc2F)s1 (racemic) [Compound P-16, [5-(2,4-difluorophenyl)-1,3,4-thiadiazol-2-yl]-[rac-(4R,7R)-7-methyl-4-(1-methylpyrazol-4-yl)-5,7-dihydro-4H-thieno[2,3-c]pyridin-6-yl]methanone]
≥ 80%: inhibition of growth at 20 ppm [5]

C[C@@H]1c2sccc2[C@H](c2cnn(C)c2)CN1C(=O)c1nnc(-c2ccc(F)cc2F)s1 [Compound P-1, [5-(2,4-difluorophenyl)-1,3,4-thiadiazol-2-yl]-[(4S,7R)-7-methyl-4-(1-methylpyrazol-4-yl)-5,7-dihydro-4H-thieno[2,3-c]pyridin-6-yl]methanone]
≥ 80%: inhibition of growth at 20 ppm [3] | inhibition of growth at 20 ppm [5]

Cc1c([C@@H]2CN(C(=O)c3cc(-c4ccc(F)cc4F)on3)Cc3ccsc32)cnn1C [Compound P-4, [5-(2,4-difluorophenyl)isoxazol-3-yl]-[(7R)-7-(1,5-dimethylpyrazol-4-yl)-6,7-dihydro-4H-thieno[3,2-c]pyridin-5-yl]methanone]
≥ 80%: pest or weed control at 200 ppm (Alternaria solani) | inhibition of growth at 20 ppm [2] | pest or weed control at 200 ppm [6] | inhibition of growth at 20 ppm [3] | pest or weed control at 200 ppm (Pyrenophora teres) | inhibition of growth at 20 ppm [5]

C[C@@H]1c2sccc2[C@](C)(c2cnn(C)c2)CN1C(=O)c1nnc(-c2ccc(F)cc2F)s1 [Compound P-5, [5-(2,4-difluorophenyl)-1,3,4-thiadiazol-2-yl]-[(4S,7R)-4,7-dimethyl-4-(1-methylpyrazol-4-yl)-5,7-dihydrothieno[2,3-c]pyridin-6-yl]methanone]
≥ 80%: inhibition of growth at 20 ppm [2] | inhibition of growth at 20 ppm [4]

CC1c2ccsc2C(C)(c2cnn(C)c2)CN1C(=O)c1cc(-c2ccc(F)cc2F)on1 (centres unmarked) [Compound P-20, [5-(2,4-difluorophenyl)isoxazol-3-yl]-[4,7-dimethyl-7-(1-methylpyrazol-4-yl)-4,6-dihydrothieno[3,2-c]pyridin-5-yl]methanone]
≥ 80%: pest or weed control at 200 ppm (Alternaria solani) | inhibition of growth at 20 ppm [1] | inhibition of growth at 20 ppm [2] | pest or weed control at 200 ppm [6] | inhibition of growth at 20 ppm [4] | inhibition of growth at 20 ppm [5]

Cn1cc(C2(C)CN(C(=O)c3nnc(-c4ccc(F)cc4F)s3)Cc3ccsc32)cn1 (centres unmarked) [Compound P-22, [5-(2,4-difluorophenyl)-1,3,4-thiadiazol-2-yl]-[7-methyl-7-(1-methylpyrazol-4-yl)-4,6-dihydrothieno[3,2-c]pyridin-5-yl]methanone]
≥ 80%: inhibition of growth at 20 ppm [1] | inhibition of growth at 20 ppm [2] | pest or weed control at 200 ppm [6] | inhibition of growth at 20 ppm [3] | inhibition of growth at 20 ppm [4] | pest or weed control at 200 ppm (Pyrenophora teres) | inhibition of growth at 20 ppm [5]

Cn1cc(C2CN(C(=O)c3cc(-c4ccc(F)cc4F)on3)Cc3cnsc32)cn1 (centres unmarked) [Compound P-23, [5-(2,4-difluorophenyl)isoxazol-3-yl]-[7-(1-methylpyrazol-4-yl)-6,7-dihydro-4H-isothiazolo[4,5-c]pyridin-5-yl]methanone]
≥ 80%: pest or weed control at 200 ppm (Alternaria solani) | inhibition of growth at 20 ppm [2] | inhibition of growth at 20 ppm [3] | inhibition of growth at 20 ppm [5]

Cn1cc(C2CN(C(=O)c3cc(-c4ccc(F)cc4F)on3)Cc3sncc32)cn1 (centres unmarked) [Compound P-26, [5-(2,4-difluorophenyl)isoxazol-3-yl]-[4-(1-methylpyrazol-4-yl)-5,7-dihydro-4H-isothiazolo[5,4-c]pyridin-6-yl]methanone]
≥ 80%: pest or weed control at 200 ppm (Alternaria solani) | inhibition of growth at 20 ppm [1] | inhibition of growth at 20 ppm [2] | pest or weed control at 200 ppm [6] | inhibition of growth at 20 ppm [3] | inhibition of growth at 20 ppm [5]

Cc1c(C2CN(C(=O)c3cc(-c4ccc(F)cc4F)on3)Cc3ncsc32)cnn1C (centres unmarked) [Compound P-28, [5-(2,4-difluorophenyl)isoxazol-3-yl]-[7-(1,5-dimethylpyrazol-4-yl)-6,7-dihydro-4H-thiazolo[4,5-c]pyridin-5-yl]methanone]
≥ 80%: pest or weed control at 200 ppm (Alternaria solani) | inhibition of growth at 20 ppm [2] | pest or weed control at 200 ppm [6] | inhibition of growth at 20 ppm [3] | inhibition of growth at 20 ppm [4] | pest or weed control at 200 ppm (Pyrenophora teres) | inhibition of growth at 20 ppm [5]

Cn1cc(C2CN(C(=O)c3cc(-c4ccc(F)cc4F)on3)Cc3cscc32)cn1 (centres unmarked) [Compound P-29]
≥ 80%: pest or weed control at 200 ppm (Alternaria solani) | inhibition of growth at 20 ppm [1] | inhibition of growth at 20 ppm [2] | pest or weed control at 200 ppm [6] | inhibition of growth at 20 ppm [3] | inhibition of growth at 20 ppm [4] | inhibition of growth at 20 ppm [5]

Cc1c(C2CN(C(=O)c3cc(-c4ccccc4F)on3)Cc3sccc32)cnn1C (centres unmarked) [Compound P-31, [4-(1,5-dimethylpyrazol-4-yl)-5,7-dihydro-4H-thieno[2,3-c]pyridin-6-yl]-[5-(2-fluorophenyl)isoxazol-3-yl]methanone]
≥ 80%: pest or weed control at 200 ppm (Alternaria solani) | inhibition of growth at 20 ppm [1] | inhibition of growth at 20 ppm [2] | pest or weed control at 200 ppm [6] | inhibition of growth at 20 ppm [3] | inhibition of growth at 20 ppm [4] | pest or weed control at 200 ppm (Pyrenophora teres) | inhibition of growth at 20 ppm [5]

Cc1nn(C)c(C)c1C1CN(C(=O)c2cc(-c3ccc(F)cc3F)on2)Cc2sccc21 (centres unmarked) [Compound P-36, [5-(2,4-difluorophenyl)isoxazol-3-yl]-[4-(1,3,5-trimethylpyrazol-4-yl)-5,7-dihydro-4H-thieno[2,3-c]pyridin-6-yl]methanone]
≥ 80%: pest or weed control at 200 ppm (Alternaria solani) | inhibition of growth at 20 ppm [1] | inhibition of growth at 20 ppm [2] | inhibition of growth at 20 ppm [3] | inhibition of growth at 20 ppm [4] | pest or weed control at 200 ppm (Pyrenophora teres) | inhibition of growth at 20 ppm [5]

Cc1nn(C)c(C)c1C1CN(C(=O)c2cc(-c3ccc(F)cc3F)on2)Cc2ccsc21 (centres unmarked) [Compound P-37, [5-(2,4-difluorophenyl)isoxazol-3-yl]-[7-(1,3,5-trimethylpyrazol-4-yl)-6,7-dihydro-4H-thieno[3,2-c]pyridin-5-yl]methanone]
≥ 80%: pest or weed control at 200 ppm (Alternaria solani) | inhibition of growth at 20 ppm [3] | inhibition of growth at 20 ppm [4] | inhibition of growth at 20 ppm [5]
